US8389247B2, “Physiogenomic method for predicting diabetes and metabolic syndromes induced by psychotropic drugs” (priority 2006, dated 2013)

What was measured:
[1] = Outcome variables of patients on each psychotropic drug broken down by demographic factors (Covariates tables); format: in vivo, human
Excerpt: Various SNPs associated with, for example, the observation of various parameters of metabolic syndromes in patients on psychotropic drugs were screened. The endpoints analyzed were the blood levels of LDL, HDL, and glucose; blood pressure; body mass index; waist circumference; and metabolic syndromes index. The physiogenomic model was developed using the following procedure: 1) Establish a covariate model using only the demographic and clinical variables, 2) Screen for associated genetic markers by testing each SNP against the unexplained residual of the covariate model, and 3) Establish a revised model incorporating the significant associations from the SNP screen.

[2] = cited from earlier work

Cc1cc2c(s1)Nc1ccccc1N=C2N1CCN(C)CC1 [olanzapine]
BM (body mass) ([1]; Age 20-30): 87.06 | Glucose (blood glucose level) ([1]; Age 20-30): 88.65 | HDL (HDL cholesterol level) ([1]; Age 20-30): 48.55 | LDL (LDL cholesterol level) ([1]; Age 20-30): 104.10 | Log (TG) (triglyceride level) ([1]; Age 20-30): 5.086 | TC (total cholesterol level) ([1]; Age 20-30): 189.00 | Waist (waist circumference) ([1]; Age 20-30): 99.18 | dBP (diastolic blood pressure) ([1]; Age 20-30): 75.15 | sBP (systolic blood pressure) ([1]; Age 20-30): 118.20 | BM (body mass) ([1]; Age 30-40): 83.17 | Glucose (blood glucose level) ([1]; Age 30-40): 92.29 | HDL (HDL cholesterol level) ([1]; Age 30-40): 47.68 | LDL (LDL cholesterol level) ([1]; Age 30-40): 103.73 | Log (TG) (triglyceride level) ([1]; Age 30-40): 5.168 | TC (total cholesterol level) ([1]; Age 30-40): 189.82 | Waist (waist circumference) ([1]; Age 30-40): 97.82 | dBP (diastolic blood pressure) ([1]; Age 30-40): 74.14 | sBP (systolic blood pressure) ([1]; Age 30-40): 117.32 | BM (body mass) ([1]; Age 40-50): 79.34 | Glucose (blood glucose level) ([1]; Age 40-50): 92.47 | HDL (HDL cholesterol level) ([1]; Age 40-50): 52.40 | LDL (LDL cholesterol level) ([1]; Age 40-50): 107.00 | Log (TG) (triglyceride level) ([1]; Age 40-50): 4.968 | TC (total cholesterol level) ([1]; Age 40-50): 202.00 | Waist (waist circumference) ([1]; Age 40-50): 98.32 | dBP (diastolic blood pressure) ([1]; Age 40-50): 78.10 | sBP (systolic blood pressure) ([1]; Age 40-50): 119.10 | BM (body mass) ([1]; Age 50-60): 95.73 | Glucose (blood glucose level) ([1]; Age 50-60): 86.67 | HDL (HDL cholesterol level) ([1]; Age 50-60): 49.67 | LDL (LDL cholesterol level) ([1]; Age 50-60): 104.00 | Log (TG) (triglyceride level) ([1]; Age 50-60): 5.373 | TC (total cholesterol level) ([1]; Age 50-60): 204.67 | Waist (waist circumference) ([1]; Age 50-60): 105.80 | dBP (diastolic blood pressure) ([1]; Age 50-60): 87.00 | sBP (systolic blood pressure) ([1]; Age 50-60): 136.33 | BM (body mass) ([1]; Age 70-80): 44.40 | Glucose (blood glucose level) ([1]; Age 70-80): 92.00 | HDL (HDL cholesterol level) ([1]; Age 70-80): 68.00 | LDL (LDL cholesterol level) ([1]; Age 70-80): 94.00 | Log (TG) (triglyceride level) ([1]; Age 70-80): 4.159 | TC (total cholesterol level) ([1]; Age 70-80): 174.0 | Waist (waist circumference) ([1]; Age 70-80): 65.00 | dBP (diastolic blood pressure) ([1]; Age 70-80): 66.00 | sBP (systolic blood pressure) ([1]; Age 70-80): 100.0 | BM (body mass) ([1]; Age <20): 65.00 | Glucose (blood glucose level) ([1]; Age <20): 109.00 | HDL (HDL cholesterol level) ([1]; Age <20): 28.00 | LDL (LDL cholesterol level) ([1]; Age <20): 68.00 | Log (TG) (triglyceride level) ([1]; Age <20): 4.787 | TC (total cholesterol level) ([1]; Age <20): 120.00 | Waist (waist circumference) ([1]; Age <20): 96.00 | dBP (diastolic blood pressure) ([1]; Age <20): 77.00 | sBP (systolic blood pressure) ([1]; Age <20): 109.00 | BM (body mass) ([1]; All patients on the drug): 82.90 | Glucose (blood glucose level) ([1]; All patients on the drug): 91.22 | HDL (HDL cholesterol level) ([1]; All patients on the drug): 49.45 | LDL (LDL cholesterol level) ([1]; All patients on the drug): 104.11 | Log (TG) (triglyceride level) ([1]; All patients on the drug): 5.072 | TC (total cholesterol level) ([1]; All patients on the drug): 192.60 | Waist (waist circumference) ([1]; All patients on the drug): 98.21 | dBP (diastolic blood pressure) ([1]; All patients on the drug): 76.12 | sBP (systolic blood pressure) ([1]; All patients on the drug): 118.58 | BM (body mass) ([1]; Gender female): 82.39 | Glucose (blood glucose level) ([1]; Gender female): 97.53 | HDL (HDL cholesterol level) ([1]; Gender female): 51.89 | LDL (LDL cholesterol level) ([1]; Gender female): 118.94 | Log (TG) (triglyceride level) ([1]; Gender female): 4.985 | TC (total cholesterol level) ([1]; Gender female): 212.16 | Waist (waist circumference) ([1]; Gender female): 100.74 | dBP (diastolic blood pressure) ([1]; Gender female): 75.84 | sBP (systolic blood pressure) ([1]; Gender female): 116.79 | BM (body mass) ([1]; Gender male): 83.10 | Glucose (blood glucose level) ([1]; Gender male): 88.98 | HDL (HDL cholesterol level) ([1]; Gender male): 48.48 | LDL (LDL cholesterol level) ([1]; Gender male): 98.54 | Log (TG) (triglyceride level) ([1]; Gender male): 5.107 | TC (total cholesterol level) ([1]; Gender male): 184.85 | Waist (waist circumference) ([1]; Gender male): 97.21 | dBP (diastolic blood pressure) ([1]; Gender male): 76.23 | sBP (systolic blood pressure) ([1]; Gender male): 119.29 | BM (body mass) ([1]; Heritage AA): 87.38 | Glucose (blood glucose level) ([1]; Heritage AA): 98.31 | HDL (HDL cholesterol level) ([1]; Heritage AA): 54.00 | LDL (LDL cholesterol level) ([1]; Heritage AA): 109.14 | Log (TG) (triglyceride level) ([1]; Heritage AA): 5.060 | TC (total cholesterol level) ([1]; Heritage AA): 197.57 | Waist (waist circumference) ([1]; Heritage AA): 96.82 | dBP (diastolic blood pressure) ([1]; Heritage AA): 77.00 | sBP (systolic blood pressure) ([1]; Heritage AA): 119.79 | BM (body mass) ([1]; Heritage Cauc.): 81.98 | Glucose (blood glucose level) ([1]; Heritage Cauc.): 89.24 | HDL (HDL cholesterol level) ([1]; Heritage Cauc.): 48.16 | LDL (LDL cholesterol level) ([1]; Heritage Cauc.): 103.53 | Log (TG) (triglyceride level) ([1]; Heritage Cauc.): 5.115 | TC (total cholesterol level) ([1]; Heritage Cauc.): 193.30 | Waist (waist circumference) ([1]; Heritage Cauc.): 98.17 | dBP (diastolic blood pressure) ([1]; Heritage Cauc.): 75.48 | sBP (systolic blood pressure) ([1]; Heritage Cauc.): 118.38 | BM (body mass) ([1]; Heritage Hisp.): 110.91 | Glucose (blood glucose level) ([1]; Heritage Hisp.): 91.00 | HDL (HDL cholesterol level) ([1]; Heritage Hisp.): 47.00 | LDL (LDL cholesterol level) ([1]; Heritage Hisp.): 147.00 | Log (TG) (triglyceride level) ([1]; Heritage Hisp.): 4.700 | TC (total cholesterol level) ([1]; Heritage Hisp.): 216.00 | Waist (waist circumference) ([1]; Heritage Hisp.): 144.00 | dBP (diastolic blood pressure) ([1]; Heritage Hisp.): 91.00 | sBP (systolic blood pressure) ([1]; Heritage Hisp.): 132.00 | BM (body mass) ([1]; Heritage Other): 60.45 | Glucose (blood glucose level) ([1]; Heritage Other): 93.50 | HDL (HDL cholesterol level) ([1]; Heritage Other): 51.00 | LDL (LDL cholesterol level) ([1]; Heritage Other): 61.50 | Log (TG) (triglyceride level) ([1]; Heritage Other): 4.263 | TC (total cholesterol level) ([1]; Heritage Other): 128.50 | Waist (waist circumference) ([1]; Heritage Other): 86.00 | dBP (diastolic blood pressure) ([1]; Heritage Other): 78.50 | sBP (systolic blood pressure) ([1]; Heritage Other): 108.50 | BM ([1]; patients on the named drug): 82.90 | BMI ([1]; patients on the named drug): 27.12 | Glucose ([1]; patients on the named drug): 91.22 | HDL ([1]; patients on the named drug): 49.45 | LDL ([1]; patients on the named drug): 104.11 | Log (TG) ([1]; patients on the named drug): 5.072 | MSI ([1]; patients on the named drug): −0.1290 | TC ([1]; patients on the named drug): 192.60 | Waist ([1]; patients on the named drug): 98.21 | dBP ([1]; patients on the named drug): 76.12 | sBP ([1]; patients on the named drug): 118.58 | treated patients with induced weight gain, diabetes and other metabolic derangements [2]: 50%
